# According to article PMC4274986 (Journal of Molecular Recognition, 2014):
# Tested on: Streptavidin-R-phycoerythrin (SAPE)
# Assay type: binding
sequence,measurement,value
FTSSPSKHPQVEAGV [R441],SAPE binding median fluorescence vs unlabeled controls,comparable to the unlabeled controls
